Laboratory results from patent US20120220039A1, “METHOD AND SYSTEM FOR DETECTING RESIDUAL POISON IN HUMAN BODY” (THE HONG KONG UNIVERSITY OF SCIENCE AND TECHNOLOGY, priority 2009, published 2012).

Test: Drug analysis of abuser in different hair segments by HPLC-Chip-MS/MS
Type: in vivo, human
From the text: Parent drug and its metabolites normally appear in hair after 5-7 day once administered. Hair normally grows at 0.75-1 cm/month. Drug taking habit or history can be reflected by analysis in different hair segments.
Hair specimens were collected and cut into different lengths. With the application of different conditions in Examples 1-8, drug distribution in different hair segments was illustrated (FIGS. 29 and 30).

[1] = Hair segment sample no. 1, hair length 0-4 cm, time 0-3 month
[2] = Hair segment sample no. 2, hair length 4-8 cm, time 3-6 month
[3] = Hair segment sample no. 3, hair length 8-12 cm, time 6-9 month
[4] = Hair segment sample no. 4, hair length 12-16 cm, time 9-12 month
[5] = Hair segment sample no. 5, hair length 16-20 cm, time 12-15 month
[6] = Hair segment sample no. 6, hair length 20-24 cm, time 15-18 month
[7] = Hair segment sample no. 7, hair length 24-28 cm, time 18-21 month
[8] = Hair segment sample no. 8, hair length 28-32 cm, time 21-24 month

## CN[C@@H](C)Cc1ccccc1 [Methamphetamine]
[1]
  Concentration in hair segment: 117.6 pg/mg
[2]
  Concentration in hair segment: 263.6 pg/mg
[3]
  Concentration in hair segment: 198.2 pg/mg
[4]
  Concentration in hair segment: 201.1 pg/mg
[5]
  Concentration in hair segment: 107.3 pg/mg
[6]
  Concentration in hair segment: 920 pg/mg
[7]
  Concentration in hair segment: 156.3 pg/mg
[8]
  Concentration in hair segment: 273.5 pg/mg

## Methadone
[1]
  Concentration in hair segment: 18.7 pg/mg
[2]
  Concentration in hair segment: 18.3 pg/mg
[3]
  Concentration in hair segment: 18.4 pg/mg
[4]
  Concentration in hair segment: 18.3 pg/mg
[5]
  Concentration in hair segment: 18.3 pg/mg
[6]
  Concentration in hair segment: 18.3 pg/mg
[7]
  Concentration in hair segment: 18.3 pg/mg
[8]
  Concentration in hair segment: 18.4 pg/mg
